Data set [1] addresses T1, PDE10A (Homo sapiens, UniProt Q9Y233).
T1 construct: made in house; host or cells: SF21 insect cells (baculovirus)
In words: Inhibition of recombinant PDE10A (baculovirus/SF21 system), [3H]-cAMP SPA. The class given is biochemical. Conditions: recombinant PDE10A1, cytosolic; 0.1 μM [3H]-cAMP, 37° C., 30 minutes; read-out: PDE10A IC50.

The target in data set [2] is T2, PDE2A (Homo sapiens, UniProt O00408).
T2 construct: made in house; host or cells: SF21 insect cells (baculovirus)
T2 sequence (O00408 whole entry): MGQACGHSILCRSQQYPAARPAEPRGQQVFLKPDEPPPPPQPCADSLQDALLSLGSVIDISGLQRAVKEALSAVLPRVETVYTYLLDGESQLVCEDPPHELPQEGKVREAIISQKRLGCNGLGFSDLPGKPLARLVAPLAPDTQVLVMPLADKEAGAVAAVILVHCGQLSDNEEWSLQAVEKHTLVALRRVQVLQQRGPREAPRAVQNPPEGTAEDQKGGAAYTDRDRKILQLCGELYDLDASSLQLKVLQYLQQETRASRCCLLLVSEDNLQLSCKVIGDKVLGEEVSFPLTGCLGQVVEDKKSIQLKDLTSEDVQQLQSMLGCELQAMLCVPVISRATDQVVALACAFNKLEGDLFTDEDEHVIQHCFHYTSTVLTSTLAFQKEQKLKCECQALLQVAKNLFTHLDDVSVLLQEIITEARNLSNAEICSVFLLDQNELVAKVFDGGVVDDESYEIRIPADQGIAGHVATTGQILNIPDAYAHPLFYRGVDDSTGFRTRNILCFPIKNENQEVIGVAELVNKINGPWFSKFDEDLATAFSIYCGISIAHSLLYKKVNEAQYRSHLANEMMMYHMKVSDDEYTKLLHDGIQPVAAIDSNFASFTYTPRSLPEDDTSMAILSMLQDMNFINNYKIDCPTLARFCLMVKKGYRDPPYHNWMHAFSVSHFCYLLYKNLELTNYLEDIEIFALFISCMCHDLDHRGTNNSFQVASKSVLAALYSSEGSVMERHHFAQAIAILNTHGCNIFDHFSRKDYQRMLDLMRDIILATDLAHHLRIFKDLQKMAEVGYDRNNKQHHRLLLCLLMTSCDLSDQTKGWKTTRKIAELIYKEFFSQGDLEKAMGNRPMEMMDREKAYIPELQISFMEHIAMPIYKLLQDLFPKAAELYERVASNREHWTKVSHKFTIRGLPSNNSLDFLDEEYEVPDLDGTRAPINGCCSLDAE
In words: Inhibition of recombinant PDE2A (expressed in baculovirus/SF21-cells), [3H]-cAMP SPA. In kind it is biochemical. An outline of the steps: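 Membrane fraction of baculovirus/SF21-expressed PDE2A was incubated 30 min at 37° C in Tris-HCl/MgCl2 pH 7.4 with 0.5 μM [3H]-cAMP and 1000 nM cGMP as activator. Product was detected by SPA scintillation. IC50 used a Hill-plot 2-parameter model.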

Like-named read-outs stand apart in the source and are kept apart here.

T1 sequence (Q9Y233 1-779 isoform Q9Y233-1): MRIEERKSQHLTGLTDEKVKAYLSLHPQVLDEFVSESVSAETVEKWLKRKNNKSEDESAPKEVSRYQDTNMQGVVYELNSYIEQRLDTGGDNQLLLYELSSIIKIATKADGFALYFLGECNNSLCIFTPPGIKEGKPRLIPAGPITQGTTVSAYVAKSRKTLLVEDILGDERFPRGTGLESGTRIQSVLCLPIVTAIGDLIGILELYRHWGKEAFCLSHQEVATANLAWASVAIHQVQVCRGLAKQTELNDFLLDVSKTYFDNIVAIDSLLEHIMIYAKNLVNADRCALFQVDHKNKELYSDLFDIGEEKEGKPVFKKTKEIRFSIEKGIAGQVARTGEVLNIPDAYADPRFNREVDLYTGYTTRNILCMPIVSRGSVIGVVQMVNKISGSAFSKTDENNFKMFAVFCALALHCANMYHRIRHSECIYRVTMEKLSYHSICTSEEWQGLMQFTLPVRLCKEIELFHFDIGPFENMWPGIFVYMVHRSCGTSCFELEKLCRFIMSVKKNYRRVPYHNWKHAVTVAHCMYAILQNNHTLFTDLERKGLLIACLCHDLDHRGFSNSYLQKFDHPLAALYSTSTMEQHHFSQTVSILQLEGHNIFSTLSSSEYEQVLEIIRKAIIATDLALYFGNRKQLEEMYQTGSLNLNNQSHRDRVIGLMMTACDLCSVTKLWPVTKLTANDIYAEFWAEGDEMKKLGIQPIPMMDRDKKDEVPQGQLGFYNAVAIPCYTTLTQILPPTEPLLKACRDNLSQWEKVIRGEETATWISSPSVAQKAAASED

Regarding `Cc1nc(CC(C)C)n2c1nnc1cc(F)c(F)cc12` [Example 59, 7,8-difluoro-1-isobutyl-3-methylbenzo[e]imidazo[5,1-c][1,2,4]triazine], the melting point (in general, the temperature of the solid-liquid transition) lay in the range of 123 to 125.5 °C.

`CCCOc1ccc(F)c(-c2nc(C)c3nnc4cc(F)ccc4n23)c1` came in with a melting point of 119 to 122 °C.

`COc1cc2nnc3c(C)nc(-c4ccccc4Cl)n3c2cc1OC` [Example 46, 1-(2-chlorophenyl)-7,8-dimethoxy-3-methylbenzo[e]imidazo[5,1-c][1,2,4]triazine] had a melting point of 269 to 272 °C.

For the molecule `CCOc1ccc(F)c(-c2ccc3nnc4c(C)nc(-c5cc(OCC)ccc5F)n4c3c2)c1`, the melting point is 152 to 155 °C.

The molecule `COc1cc2nnc3c(C)nc(-c4ccccc4C)n3c2cc1OC` [Example 49, 7,8-dimethoxy-3-methyl-1-o-tolylbenzo[e]imidazo[5,1-c][1,2,4]triazine] came in with a melting point of 219 to 221 °C.

`Cc1nc(-c2ccccc2Cl)n2c1nnc1cc(F)c(F)cc12` [Example 58, 1-(2-chlorophenyl)-7,8-difluoro-3-methylbenzo[e]imidazo[5,1-c][1,2,4]triazine] registered a melting point of 157 to 159 °C.

`COc1cc(F)c2nnc3c(C)nc(-c4cccc(F)c4C)n3c2c1` [Example 84, 6-fluoro-1-(3-fluoro-2-methylphenyl)-8-methoxy-3-methylimidazo[5,1-c][1,2,4]benzotriazine]: the IC50 (in general, the concentration needed to halve the response being measured) was 10.7 nM in data set [1] and 61 nM in data set [2].

Regarding `COc1ccc(Cl)cc1-c1nc(C)c2nnc3c(OC)cc(F)cc3n12` [Example 102, 1-(5-chloro-2-methoxyphenyl)-8-fluoro-6-methoxy-3-methylimidazo[5,1-c][1,2,4]benzotriazine], the IC50 in data set [1] was found to be 14.5 nM; in data set [2], 704 nM.

`COc1cc(F)c2nnc3c(C)nc(-c4sc(C)nc4C)n3c2c1` [Example 91, 1-(2,4-dimethyl-1,3-thiazol-5-yl)-6-fluoro-8-methoxy-3-methylimidazo[5,1-c][1,2,4]benzotriazine]: the IC50 in data set [1] came to 43.6 nM; in data set [2], 56.1 nM.

Take “8-fluoro-1-isobutyl-3-methylbenzo[e]imidazo[5,1-c][1,2,4]triazine [Example 9]”: the IC50 turned out to be 156 nM in data set [1] and 302 nM in data set [2] (recombinant PDE2A, membrane fraction, 0.5 μM [3H]-cAMP, 1000 nM cGMP, 37° C., 30 minutes, read-out: PDE2A IC50).

In the case of `COc1cc(F)c2nnc3c(C)nc(-c4sccc4C)n3c2c1` [Example 81, 6-fluoro-8-methoxy-3-methyl-1-(3-methylthiophen-2-yl)imidazo[5,1-c][1,2,4]benzotriazine], the IC50 in data set [1] is 9.43 nM; in data set [2] it was 35.9 nM.

Turning to `COc1cc(F)cc2c1nnc1c(C)nc(-c3cc(C)ccc3Cl)n12` [Example 107, 1-(2-chloro-5-methylphenyl)-8-fluoro-6-methoxy-3-methylimidazo[5,1-c][1,2,4]benzotriazine], the IC50 stood at 2.98 nM in data set [1] and 62.5 nM in data set [2].

The molecule `COc1cc2nnc3c(C)nc(-c4cc(Cl)ccc4Cl)n3c2cc1OC` [Example 55, 1-(2,5-dichlorophenyl)-7,8-dimethoxy-3-methylbenzo[e]imidazo[5,1-c][1,2,4]triazine] came in with a melting point of 175 °C.

`COc1cc2nnc3c(C)nc(Br)n3c2cc1OC` [Example 54, 1-bromo-7,8-dimethoxy-3-methylbenzo[e]imidazo[5,1-c][1,2,4]triazine] displayed a melting point of 200 °C.

On to `COc1cc(O)cc2c1nnc1c(C)nc(-c3ccncc3C)n12` [Example 152, 6-methoxy-3-methyl-1-(3-methylpyridin-4-yl)benzo[e]imidazo[5,1-c][1,2,4]triazin-8-ol], for which the IC50 in data set [1] came out at 3.05 nM; in data set [2], 105 nM.

Regarding `COc1cc(F)cc2c1nnc1c(C)nc(-c3ccncc3)n12` [Example 129, 8-fluoro-6-methoxy-3-methyl-1-pyridin-4-ylimidazo[5,1-c][1,2,4]benzotriazine], the IC50 stood at 61.6 nM in data set [1] and 4950 nM in data set [2].

Turning to `COc1ccc(Cl)c(-c2nc(C)c3nnc4c(OC)cc(F)cc4n23)c1` [Example 126, 1-(2-chloro-5-methoxyphenyl)-8-fluoro-6-methoxy-3-methylimidazo[5,1-c][1,2,4]benzotriazine], the IC50 in data set [1] came to 2.45 nM; in data set [2], 108 nM.

On to `COc1cc(F)cc2c1nnc1c(C)nc(-c3cc(Cl)ccc3F)n12` [Example 106, 1-(5-chloro-2-fluorophenyl)-8-fluoro-6-methoxy-3-methylimidazo[5,1-c][1,2,4]benzotriazine], for which the IC50 came to 7.91 nM in data set [1] and 336 nM in data set [2].

Consider `COc1cc(F)c2nnc3c(C)nc(-c4cccnc4F)n3c2c1` [Example 94, 6-fluoro-1-(2-fluoropyridin-3-yl)-8-methoxy-3-methylimidazo[5,1-c][1,2,4]benzotriazine], for which the IC50 stood at 122 nM in data set [1] and 127 nM in data set [2].

Consider `COc1cc(OC(F)F)cc2c1nnc1c(C)nc(-c3cnccc3C)n12` [Example 150, 8-(difluoromethoxy)-6-methoxy-3-methyl-1-(4-methylpyridin-3-yl)benzo[e]imidazo[5,1-c][1,2,4]triazine], for which the IC50 in data set [1] is 7 nM; in data set [2] it was 944 nM.

For `COc1cc(OCc2ccccc2)cc2c1nnc1c(C)nc(-c3ccncc3C)n12` [Example 151, 8-(benzyloxy)-6-methoxy-3-methyl-1-(3-methylpyridin-4-yl)imidazo[5,1-c][1,2,4]benzotriazine], the half-maximal inhibitory concentration (IC50) in data set [1] was found to be 0.7 nM; in data set [2], 80.6 nM.

As for `COc1cc(F)c2nnc3c(C)nc(-c4cc(C(N)=O)ccc4F)n3c2c1` [Example 98, 4-fluoro-3-(6-fluoro-8-methoxy-3-methylimidazo[5,1-c][1,2,4]benzotriazin-1-yl)benzamide], the figures for the IC50 in data set [1] and in data set [2] were 15.4 nM and 45 nM, respectively.

On to `Cc1nc(-c2cc(Cl)ccc2Cl)n2c1nnc1ccc(N3CCCCC3)cc12` [Example 180, 1-(2,5-Dichloro-phenyl)-3-methyl-8-piperidin-1-yl-imidazo[5,1-c][1,2,4]benzotriazine], for which the results for the IC50 in data set [1] and in data set [2] were 49.5 nM and 6.9 nM, respectively.

In the case of `COc1cc(F)cc2c1nnc1c(C)nc(-c3c(C)nn(C)c3C)n12` [Example 116, 8-fluoro-6-methoxy-3-methyl-1-(1,3,5-trimethyl-1H-pyrazol-4-yl)imidazo[5,1-c][1,2,4]benzotriazine], the IC50 in data set [1] amounted to 13.1 nM; in data set [2], 1500 nM.

In the case of `CCOc1ccc(Cl)c(-c2nc(C)c3nnc4c(F)cc(OC)cc4n23)c1` [Example 77, 1-(2-chloro-5-ethoxyphenyl)-6-fluoro-8-methoxy-3-methylimidazo[5,1-c][1,2,4]benzotriazine], the IC50 in data set [1] amounted to 30.9 nM; in data set [2], 10.3 nM.

`COc1cc(F)c2nnc3c(C)nc(-c4ccc(C)cc4F)n3c2c1` [Example 74, 6-fluoro-1-(2-fluoro-4-methylphenyl)-8-methoxy-3-methylimidazo[5,1-c][1,2,4]benzotriazine]: the values for the IC50 in data set [1] and in data set [2] were 38.5 nM and 134 nM, respectively.

In the case of `COc1cc(F)c2nnc3c(C)nc(-c4cc(Cl)ccc4OC)n3c2c1` [Example 68, 1-(5-chloro-2-methoxyphenyl)-6-fluoro-8-methoxy-3-methylimidazo[5,1-c][1,2,4]benzotriazine], the IC50 in data set [1] is 64.2 nM; in data set [2], 109 nM.

Consider `COc1cc(F)c2nnc3c(C)nc(-c4ccncc4)n3c2c1` [Example 87, 6-fluoro-8-methoxy-3-methyl-1-pyridin-4-ylimidazo[5,1-c][1,2,4]benzotriazine], for which the IC50 in data set [1] was determined as 246 nM; in data set [2] it was 1250 nM.

For `COc1cc(F)c2nnc3c(C)nc(-c4cnc(F)c(C)c4)n3c2c1` [Example 92, 6-fluoro-1-(6-fluoro-5-methylpyridin-3-yl)-8-methoxy-3-methylimidazo[5,1-c][1,2,4]benzotriazine], the figures for the IC50 in data set [1] and in data set [2] were 523 nM and 469 nM, respectively.

Consider `COc1cc(F)c2nnc3c(C)nc(-c4cnccc4C)n3c2c1` [Example 97, 6-fluoro-8-methoxy-3-methyl-1-(4-methylpyridin-3-yl)imidazo[5,1-c][1,2,4]benzotriazine], for which the IC50 in data set [1] and in data set [2] was 146 nM each time.

Regarding `COc1cc(F)c2nnc3c(C)nc(-c4cc(F)ccc4C)n3c2c1` [Example 73, 6-fluoro-1-(5-fluoro-2-methylphenyl)-8-methoxy-3-methylimidazo[5,1-c][1,2,4]benzotriazine], the IC50 in data set [1] came out at 18.9 nM; in data set [2], 15.1 nM.

`COc1cccc(-c2nc(C)c3nnc4c(F)cc(OC)cc4n23)c1` [Example 67, 6-fluoro-8-methoxy-1-(3-methoxyphenyl)-3-methylimidazo[5,1-c][1,2,4]benzotriazine]: the IC50 in data set [1] was determined as 16.8 nM; in data set [2] it was 64.8 nM.

Turning to `COc1cc(F)cc2c1nnc1c(C)nc(-c3cccc(F)c3C)n12` [Example 117, 8-fluoro-1-(3-fluoro-2-methylphenyl)-6-methoxy-3-methylimidazo[5,1-c][1,2,4]benzotriazine], the IC50 is 3.55 nM in data set [1] and 1150 nM in data set [2].

As for `COc1cc(C(F)(F)F)cc2c1nnc1c(C)nc(-c3ccncc3C)n12` [Example 134, 6-methoxy-3-methyl-1-(3-methylpyridin-4-yl)-8-(trifluoromethyl)benzo[e]imidazo[5,1-c][1,2,4]triazine], the results for the IC50 in data set [1] and in data set [2] were 1.48 nM and 346 nM, respectively.

Take `COc1cc(F)c2nnc3c(C)nc(-c4ccccc4OC)n3c2c1` [Example 86, 6-fluoro-8-methoxy-1-(2-methoxyphenyl)-3-methylimidazo[5,1-c][1,2,4]benzotriazine]: the IC50 stood at 8.33 nM in data set [1] and 3390 nM in data set [2].

The values above are taken from US20100120763A1, “IMIDAZO[5,1-C][1,2,4]BENZOTRIAZINE DERIVATIVES AS INHIBITORS OF PHOSPHODIESTERASES” (priority 2008, published 2010).
